Data published in PubChem BioAssay (NCI).
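Tested at 5 concentrations; 48 h exposure; 96-well plates; endpoints linearly interpolated, else capped at highest concentration. Definition used: TGI = concentration required for complete inhibition of growth.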

Key:
Experiment in all cases: DTP human tumour cell line panel, 48 h
[1] = system: SN12C renal
[2] = system: SW-620 colon
[3] = system: U251 CNS
[4] = system: HCC-2998 colon
[5] = system: HL-60(TB) leukemia
[6] = system: HCT-15 colon
[7] = system: NCI-H460 lung
[8] = system: NCI/ADR-RES ovarian
[9] = system: EKVX NSCLC
[10] = system: MALME-3M melanoma

Row | Compound | TGI [1] | TGI [2] | TGI [3] | TGI [4] | TGI [5] | TGI [6] | TGI [7] | TGI [8] | TGI [9] | TGI [10]
1 | O=C(NCc1ccccc1)c1cc2ccccc2oc1=Nc1cccc(C(F)(F)F)c1 | 62.7 µM | > 100 µM | > 100 µM | 61.1 µM | 49.9 µM | > 100 µM | > 100 µM | > 100 µM | > 100 µM | > 100 µM
2 | Cc1c2cccc-2c2cc(O)c3ccccc3c2n1-c1ccc(N(C)C)cc1 | 33.9 µM | 53.6 µM | 25.9 µM | 35.1 µM | > 100 µM | 20 µM | 59 µM | 30.7 µM | 11.7 µM | 29 µM
3 | CCOC1C=CC(=O)C(CO)O1 (stereo not given) | 26.8 µM | 29.6 µM | 27.9 µM | 34.4 µM | 20.9 µM | 25.3 µM | 30.9 µM | 33.2 µM | 33.3 µM | 25.8 µM
